Measured values taken from PubChem BioAssay (NCI).
“And” between values parts separate entries of the source, which are not always exact repeats. Equal entries are not always repeated.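 Exposure lasted 48 hours, with cells grown in 96-well plates and compounds tested at five concentrations. GI50 is the concentration that inhibits growth by half. Definition used: TGI = concentration required for complete inhibition of growth.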

How the values were obtained:
Assay in all cases: growth of human tumour cells (NCI), 48 h
SF-268 CNS = system: SF-268 CNS
EKVX NSCLC = system: EKVX NSCLC
KM12 colon = system: KM12 colon
HOP-62 NSCLC = system: HOP-62 NSCLC
HOP-92 NSCLC = system: HOP-92 NSCLC
MALME-3M melanoma = system: MALME-3M melanoma
HCT-116 colon = system: HCT-116 colon
BT-549 breast = system: BT-549 breast
UO-31 renal = system: UO-31 renal
MOLT-4 leukemia = system: MOLT-4 leukemia

SMILES | TGI (SF-268 CNS) | TGI (EKVX NSCLC) | TGI (KM12 colon) | TGI (HOP-62 NSCLC) | TGI (HOP-92 NSCLC) | TGI (MALME-3M melanoma) | TGI (HCT-116 colon) | TGI (BT-549 breast) | TGI (UO-31 renal) | TGI (MOLT-4 leukemia) | GI50 (BT-549 breast) | GI50 (SF-268 CNS) | GI50 (EKVX NSCLC) | GI50 (KM12 colon) | GI50 (HOP-62 NSCLC) | GI50 (HOP-92 NSCLC) | GI50 (MALME-3M melanoma) | GI50 (HCT-116 colon) | GI50 (UO-31 renal) | GI50 (MOLT-4 leukemia)
Nc1ncnc2c1ncn2CC(O)C(=O)O (stereo not given) | > 100 µM | > 100 µM | > 100 µM | > 100 µM | > 100 µM | > 100 µM | > 100 µM | > 100 µM | > 100 µM | > 100 µM | – | – | – | – | – | – | – | – | – | –
NC1=C(Br)C(=O)c2ncccc2C1=O | 1.92 µM | 3.02 µM | 2.7 µM | 1.67 µM | 3.06 µM | 1.4 µM | 0.807 µM | 2.57 µM | 1.07 µM | 4.83 µM | 1.16 µM | – | – | – | – | – | – | – | – | –
CC(C)C[C@H](NC(=O)[C@H]1O[C@@H]1C(=O)O)C(=O)NCCc1ccc(O)cc1 | > 100 µM | > 100 µM | > 100 µM | > 100 µM | > 100 µM | > 100 µM | > 100 µM | > 100 µM | > 100 µM | > 100 µM | > 100 µM | > 100 µM | > 100 µM | > 100 µM | > 100 µM | > 100 µM | > 100 µM | > 100 µM | 38.4 µM | > 100 µM
COc1cc(C(O)c2nc3ccccc3s2)cc(OC)c1OC (stereo not given) | > 100 µM | > 100 µM | > 100 µM | > 100 µM | 31.2 µM | > 100 µM | > 100 µM | > 100 µM | > 100 µM | > 100 µM | 60.6 µM | > 100 µM | 2.83 µM | 78.3 µM | 43.8 µM | 1.15 µM | 21.4 µM | 45.4 µM | 6.2 µM | 18.1 µM
O=Cc1cn(Cc2cccc(Cl)c2)c2ccccc12 | 26.3 µM | 25 µM | 35.1 µM | 19.5 µM | 20.8 µM | 33.8 µM | 16 µM | 18.6 µM | 21.1 µM | 31.8 µM | 5.25 µM | 11.7 µM | 9.9 µM | 14.7 µM | 2.57 µM | 6.19 µM | 13.5 µM | 2.39 µM | 5.49 µM | 6.69 µM
COc1ccc2c(c1)c(-c1nc(-c3c[nH]c4ncccc34)cs1)cn2CCCCN1CCOCC1 | 3.93 µM | 9.69 µM | 3.96 µM | 4.08 µM | 4.17 µM | 3.34 µM | 3.37 µM | 15.5 µM | 3.23 µM | 3.92 µM | 3.74 µM | 1.8 µM | 2.66 µM | 1.93 µM | 1.91 µM | 1.67 µM | 1.55 µM | 1.78 µM | 1.43 µM | 1.86 µM
Cn1ccnc1C(=O)/C=C/c1ccc(CC(=O)Nc2ccc(S(F)(F)(F)(F)F)cc2)cc1 | 4.86 µM | 8.23 µM | 4.7 µM | 6.18 µM | 3.92 µM | 6.65 µM | 2.87 µM | 5.29 µM | 4.35 µM | 1.51 µM | 2.5 µM | 1.88 µM | 2.84 µM | 2.04 µM | 2.58 µM | 1.13 µM | 2.95 µM | 0.823 µM | 2.22 µM | 0.578 µM
CC(C)[C@@]12C[C@@H](OC(=O)COC(=O)/C=C/c3ccccc3)[C@@](C)(O1)[C@@H]1CC[C@@H](C)[C@H]1[C@@H]2OC(=O)/C=C/c1ccccc1 | > 100 µM | > 100 µM | > 100 µM | > 100 µM | > 100 µM | > 100 µM | > 100 µM | > 100 µM | 0.216 µM | > 100 µM | 0.508 µM | – | > 100 µM | > 100 µM | > 100 µM | > 64.9 µM | > 100 µM | > 100 µM | 0.0656 µM | > 100 µM
COc1ccc(C(=O)/C=C/c2c(C(F)(F)F)nc3sccn23)cc1OC | > 100 µM | > 100 µM | 11.1 µM | 43 µM | 59.6 µM | > 100 µM | 68.7 µM | > 100 µM | > 100 µM | > 100 µM | 3.25 µM | 3.44 µM | 4.43 µM | 1.97 µM | 6 µM | 5.87 µM | 5.92 µM | 1.4 µM | 8.47 µM | 2.22 µM
Cc1nc2sc(C(=O)Nc3cccc4ccccc34)c(N)c2cc1C(=O)/C=C/c1ccccc1 | > 32.4 µM | > 36.7 µM | 1.25 µM | 2.71 µM | 8.97 µM | > 34.9 µM | 0.631 µM | 1.92 µM | 1.03 µM | > 28.4 µM | 0.413 µM | 1.15 µM | 1.14 µM | 0.368 µM | 0.311 µM | 0.37 µM | 0.343 µM | 0.174 µM | 0.351 µM | 0.251 µM
C=CC1=C[C@@H]2[C@@H]3O[C@]4(CC[C@H](O4)[C@@H](C)C[C@@H](O)C3=O)C[C@H](O)C3=NCC[C@@]32CC1 | 0.00575 µM | 0.00345 µM | 0.0061 µM | 0.0075 µM | 0.00606 µM | < 0.00333 µM | 0.00371 µM | < 0.00333 µM | < 0.00333 µM | 0.112 µM | < 0.00333 µM | < 0.00333 µM | < 0.00333 µM | < 0.00333 µM | < 0.00333 µM | < 0.00333 µM | < 0.00333 µM | < 0.00333 µM | < 0.00333 µM | < 0.00333 µM
CCc1cccc2c3c(sc12)C(c1ccc(Cl)cc1)C(C#N)=C(N)O3 (stereo not given) | 22.2 µM | 14.7 µM | 13.1 µM | 11.1 µM | 6.92 µM | 9.9 µM | 9.59 µM | 15.6 µM | 13.4 µM | 27.6 µM | 0.983 µM | 0.933 µM | 1.08 µM | 0.447 µM | 0.623 µM | 0.753 µM | 0.712 µM | 0.408 µM | 0.691 µM | 0.59 µM
O=C(/C=C/c1cccs1)c1ccc(Nc2nc(Nc3ccc(F)cc3)nc(Nc3ccc(F)cc3)n2)cc1 | > 100 µM | > 100 µM | 45.2 µM | > 100 µM | 57.8 µM | > 100 µM | > 100 µM | 32.4 µM | 79.7 µM | > 100 µM | 16.7 µM | 30.2 µM | 34.3 µM | 16.3 µM | > 100 µM | 25.8 µM | 40.4 µM | 23.6 µM | 19.5 µM | 29.1 µM
COc1ccc(C(=O)COc2cccc(/C=C3\CSc4ccccc4C3=O)c2)cc1 | 5.77 µM | 14.8 µM | 3.05 µM | 7.6 µM | 9.08 µM | 5.58 µM | 2.78 µM | 3.67 µM | 3.46 µM | 19.3 µM | 1.8 µM | 2.47 µM | 5.3 µM | 1.56 µM | 2.84 µM | 2.4 µM | 2.2 µM | 1.35 µM | 1.69 µM | 0.913 µM
O=C1/C(=C/c2ccccc2F)CNC/C1=C\c1ccccc1F | 5.37 µM and 1.21 µM | 2.58 µM and 5.26 µM | 0.519 µM and 0.39 µM | 2.65 µM and 1.01 µM | 7.37 µM and 4.71 µM | 6.38 µM and 4.51 µM | 0.549 µM and 0.341 µM | 1.43 µM and 2.25 µM | 1.8 µM and 2.05 µM | 1.76 µM and 3.13 µM | 0.434 µM and 0.782 µM | 0.62 µM and 0.309 µM | 0.775 µM and 1.9 µM | 0.189 µM and 0.197 µM | 0.53 µM and 0.33 µM | 2.82 µM and 1.92 µM | 2.26 µM and 1.83 µM | 0.224 µM and 0.177 µM | 0.567 µM and 0.753 µM | 0.425 µM and 0.738 µM
C/C(=C\c1ccn(-c2ccc(N)c(F)c2)n1)[C@@H]1C[C@@H]2O[C@]2(C)CCC[C@H](C)[C@H](O)[C@@H](C)C(=O)C(C)(C)[C@@H](O)CC(=O)O1 | > 50 µM | > 50 µM | > 50 µM | > 50 µM | > 44.4 µM | > 50 µM | > 50 µM | 25.4 µM | > 50 µM | > 50 µM | 0.041 µM | 0.0418 µM | 0.171 µM | 0.00857 µM | 0.0245 µM | 0.0119 µM | 0.0217 µM | 0.00796 µM | 0.0982 µM | 0.0106 µM
C=C(C)[C@@H]1CC[C@]2(C(=O)NCCNCCNCCN)CC[C@]3(C)[C@H](CC[C@@H]4[C@@]5(C)CC[C@H](O)C(C)(C)[C@@H]5CC[C@]43C)[C@@H]12 | 32.3 µM | 26.6 µM | 26.2 µM | 33.5 µM | 19.7 µM | 28.4 µM | 18.7 µM | 57.5 µM | 24.7 µM | > 100 µM | 15 µM | 13.5 µM | 10.5 µM | 6.81 µM | 16.5 µM | 4.61 µM | 14.6 µM | 4.4 µM | 11.7 µM | 11.5 µM
NC(=O)c1cc([N+](=O)[O-])c(Cl)c([N+](=O)[O-])c1 | 16.2 µM | 35.7 µM | 16.3 µM | 17.8 µM | 4.18 µM | 4.54 µM | 3.53 µM | 5.56 µM | 3.24 µM | 5.68 µM | 2.52 µM | 4.66 µM | 17.4 µM | 4.69 µM | 5.49 µM | 1.96 µM | 2.27 µM | 1.91 µM | 1.77 µM | 2.62 µM
c1cc(CCN2CCCCC2)ccn1 | > 100 µM | > 100 µM | > 100 µM | > 100 µM | > 100 µM | > 100 µM | > 100 µM | > 100 µM | > 100 µM | > 100 µM | – | – | – | – | – | – | – | – | – | –
COc1ccc(C/C(C)=C(\c2ccc(OCCN3CCOCC3)cc2)c2ccc(OC(=O)Cc3ccccc3)cc2)cc1 | 12.8 µM | 3.49 µM | 3.37 µM | 1.17 µM | 0.901 µM | 1.03 µM | 0.989 µM | 0.996 µM | 0.952 µM | 1.91 µM | 0.502 µM | 0.96 µM | 0.851 µM | 1.14 µM | 0.621 µM | 0.28 µM | 0.531 µM | 0.496 µM | 0.422 µM | 0.593 µM
Cc1ccc2c(c1C)-c1c(ccc(C)c1C)C(=O)C2=O | 5.38 µM | 6.54 µM | 2.21 µM | 9.32 µM | 5.02 µM | 1.83 µM | 13.3 µM | 1.06 µM | 4.36 µM | 0.686 µM | – | – | – | – | – | – | – | – | – | –
